Measured values taken from patent US6737383B1, “Herbicidal oxadiazolidines” (priority 1999, dated 2004).

Tests used:
rice = assay: Test B flood test rice; assay type: in vivo, Oryza sativa
In short: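 Flood test on plants grown to the 2-leaf stage; treated plants kept in greenhouse twelve to sixteen days, then visually rated against controls on a 0 (no effect) to 10 (complete control) scale.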

green foxtail = assay: Test E green foxtail; assay type: in vivo, Setaria viridis; conditions: Preemergence
crabgrass = assay: Test B pre/postemergence crabgrass; assay type: in vivo, Digitaria sanguinalis
In short: (§1)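 Herbicidal effect was estimated by eye on a ten-point control scale after plants spent twelve to sixteen days in a greenhouse following soil or foliar treatment. Foliar sprays targeted plants at one to four leaves; all doses were formulated in a non-phytotoxic solvent with surfactant.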

wild oat [1] = assay: Test B pre/postemergence wild oat; assay type: in vivo, Avena fatua
In short: as §1

winter wheat [2] = assay: Test E winter wheat; assay type: in vivo, Triticum aestivum; conditions: Postemergence
In short: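 Compound formulated with surfactant in a non-phytotoxic solvent (postemergence: young 1- to 4-leaf plants); held in greenhouse approx. 21–28 days; visual assessment against untreated plants.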

Italian ryegrass = assay: Test E Italian ryegrass; assay type: in vivo, Lolium multiflorum; conditions: Preemergence
winter barley = assay: Test E winter barley; assay type: in vivo, Hordeum vulgare; conditions: Preemergence
blackgrass = assay: Test E blackgrass; assay type: in vivo, Alopecurus myosuroides; conditions: Preemergence
winter wheat [3] = assay: Test E winter wheat; assay type: in vivo, Triticum aestivum; conditions: Preemergence
wild oat [4] = assay: Test E wild oat; assay type: in vivo, Avena fatua; conditions: Preemergence
wheat = assay: Test B pre/postemergence wheat; assay type: in vivo, Triticum aestivum
In short: as §1

[5] = Rate 125 g/ha, Pre-emergence, flood test species, scale 0 to 10 where 0 is no effect and 10 is complete control
[6] = Rate 250 g/ha, Pre-emergence, flood-test species, scale 0 to 10, 0 is no effect, 10 is complete control
[7] = Rate 500 g/ha, Pre-emergence, flood test species, scale 0 to 10 (0 no effect, 10 complete control)
[8] = Rate 500 g/ha, 0 to 100 scale where 0 is no effect and 100 is complete control
[9] = Rate 1000 g/ha, 0 to 100 scale, 0 no effect, 100 complete control
[10] = Preemergence, Rate 62 g/ha, scale of 0 to 10 where 0 is no effect and 10 is complete control
[11] = Preemergence, Rate 250 g/ha, scale of 0 to 10 where 0 is no effect and 10 is complete control
[12] = Preemergence, Rate 500 g/ha, scale of 0 to 10 where 0 is no effect and 10 is complete control
[13] = Rate 62 g/ha, Postemergence, scale of 0 to 10 where 0 is no effect and 10 is complete control
[14] = Rate 125 g/ha, Postemergence, scale 0 to 10
[15] = Rate 125 g/ha, Preemergence, scale of 0 to 10 where 0 is no effect and 10 is complete control
[16] = Rate 500 g/ha, Postemergence, scale 0 to 10, 0 no effect, 10 complete control
[17] = Rate 500 g/ha, 0 to 100 scale, 0 is no effect, 100 is complete control
[18] = Rate 125 g/ha, 0 to 100 scale (0 no effect, 100 complete control)
[19] = Rate 500 g/ha, 0 to 100 scale (0 no effect, 100 complete control)
[20] = Rate 62 g/ha, Postemergence, scale 0 to 10 (0 no effect, 10 complete control)
[21] = Rate 125 g/ha, Postemergence, scale of 0 to 10 where 0 is no effect and 10 is complete control
[22] = Rate 250 g/ha, Postemergence, scale of 0 to 10 where 0 is no effect and 10 is complete control

`Cc1nc(C)c(Cn2c(=O)on(C(=O)N(c3ccc(F)cc3)C(C)C)c2=O)s1` [Compound 232] was tested, and the “Rice plant response rating” value (rice; Rate 62 g/ha, headed Pre-emergence (flood test species), scale 0 to 10 (0 no effect, 10 complete control)) was 0, the “Rice plant response rating” value (rice; [5]) was 0 and the “Rice plant response rating” value (rice; [6]) was 0. The “Rice plant response rating” value (rice; [7]) was 0, the “Green foxtail plant response rating (0 to 100 scale)” value (green foxtail; Rate 250 g/ha) was 95 and the “Plant response rating, Green foxtail” value (green foxtail; [8]) was 90. For the same compound, the “Plant response rating, Green foxtail” value (green foxtail; [9]) was 100, the “Crabgrass plant response rating” value (crabgrass; [10]) was 5 and the “Crabgrass plant response rating” value (crabgrass; [11]) was 9. For the same compound, the “Plant response rating, Crabgrass” value (crabgrass; [12]) was 10, the “Crabgrass plant response rating” value (crabgrass; [13]) was 0 and the “Crabgrass plant response rating” value (crabgrass; [14]) was 1. The “Crabgrass plant response rating” value (crabgrass; [15]) was 7, the “Plant response rating (0 to 10; 0 is no effect, 10 is complete control), Crabgrass” value (crabgrass; Rate 250 g/ha, Postemergence) was 1 and the “Crabgrass plant response rating” value (crabgrass; [16]) was 2. For the same compound, the “Wild oats plant response rating” value (wild oat [1]; [10]) was 0, the “Wild oats plant response rating” value (wild oat [1]; [11]) was 3 and the “Plant response rating, Wild oats” value (wild oat [1]; [12]) was 8. The “Wild oats plant response rating” value (wild oat [1]; [13]) was 0, the “Wild oats plant response rating” value (wild oat [1]; [14]) was 0 and the “Wild oats plant response rating” value (wild oat [1]; [15]) was 0. For the same compound, the “Plant response rating (0 to 10; 0 is no effect, 10 is complete control), Wild oats” value (wild oat [1]; Rate 250 g/ha, Postemergence) was 0, the “Wild oats plant response rating” value (wild oat [1]; [16]) was 0 and the “Plant response rating, Wheat (winter)” value (winter wheat [2]; Rate 1000 g/ha, 0 to 100 scale where 0 is no effect and 100 is complete control) was 60. For the same compound, the “Wheat (winter) plant response rating” value (winter wheat [2]; Rate 250 g/ha, 0 to 100 scale where 0 is no effect and 100 is complete control) was 40, the “Plant response rating, Wheat (winter)” value (winter wheat [2]; [17]) was 50 and the “I. Ryegrass plant response rating (0 to 100 scale)” value (Italian ryegrass; Rate 250 g/ha) was 40. The “Plant response rating, I. Ryegrass” value (Italian ryegrass; [8]) was 50, the “Plant response rating, I. Ryegrass” value (Italian ryegrass; [9]) was 55 and the “Barley (winter) plant response rating (0 to 100 scale)” value (winter barley; Rate 250 g/ha) was 20. For the same compound, the “Plant response rating, Barley (winter)” value (winter barley; [8]) was 20, the “Plant response rating, Barley (winter)” value (winter barley; [9]) was 55 and the “Blackgrass plant response rating (0 to 100 scale)” value (blackgrass; Rate 250 g/ha) was 30. For the same compound, the “Plant response rating, Blackgrass” value (blackgrass; [8]) was 50, the “Plant response rating, Blackgrass” value (blackgrass; [9]) was 50 and the “Wheat (winter) plant response rating (0 to 100 scale)” value (winter wheat [3]; Rate 250 g/ha) was 30. The “Plant response rating, Wheat (winter)” value (winter wheat [3]; [8]) was 30, the “Plant response rating, Wheat (winter)” value (winter wheat [3]; [9]) was 50 and the “Wild oat plant response rating (0 to 100 scale)” value (wild oat [4]; Rate 250 g/ha) was 55. For the same compound, the “Plant response rating, Wild oat” value (wild oat [4]; [8]) was 50, the “Plant response rating, Wild oat” value (wild oat [4]; [9]) was 60 and the “Wheat plant response rating” value (wheat; [10]) was 0. For the same compound, the “Wheat plant response rating” value (wheat; [11]) was 0, the “Plant response rating, Wheat” value (wheat; [12]) was 0 and the “Wheat plant response rating” value (wheat; [13]) was 0. For the same compound, the “Wheat plant response rating” value (wheat; [14]) was 0, the “Wheat plant response rating” value (wheat; [15]) was 0 and the “Plant response rating (0 to 10; 0 is no effect, 10 is complete control), Wheat” value (wheat; Rate 250 g/ha, Postemergence) was 0. The “Wheat plant response rating” value (wheat; [16]) was 0.

For `COC(Cn1c(=O)on(C(=O)N(c2ccc(F)cc2)C(C)C)c1=O)OC` [Compound 317], the “Rice plant response rating” value (rice; Pre-emergence, Rate 1000 g/ha, scale 0 to 10 (0 no effect, 10 complete control)) was 0, the “Rice plant response rating” value (rice; [5]) was 0 and the “Rice plant response rating” value (rice; [6]) was 0. The “Rice plant response rating” value (rice; [7]) was 0, the “Plant response rating, Green foxtail” value (green foxtail; [18]) was 100 and the “Plant response rating, Green foxtail” value (green foxtail; Rate 250 g/ha, 0 to 100 scale) was 100. For the same compound, the “Plant response rating, Green foxtail” value (green foxtail; [19]) was 100, the “Crabgrass plant response rating” value (crabgrass; [10]) was 6 and the “Crabgrass plant response rating (0 to 10 scale)” value (crabgrass; Preemergence, Rate 125 g/ha) was 7. For the same compound, the “Crabgrass plant response rating” value (crabgrass; [11]) was 8, the “Crabgrass plant response rating” value (crabgrass; [12]) was 8 and the “Crabgrass plant response rating” value (crabgrass; [20]) was 2. The “Crabgrass plant response rating” value (crabgrass; [21]) was 5, the “Plant response rating, Crabgrass” value (crabgrass; [22]) was 8 and the “Wild oats plant response rating” value (wild oat [1]; [10]) was 5. For the same compound, the “Wild oats plant response rating (0 to 10 scale)” value (wild oat [1]; Preemergence, Rate 125 g/ha) was 8, the “Wild oats plant response rating” value (wild oat [1]; [11]) was 8 and the “Wild oats plant response rating” value (wild oat [1]; [12]) was 10. The “Wild oats plant response rating” value (wild oat [1]; [20]) was 0, the “Wild oats plant response rating” value (wild oat [1]; [21]) was 0 and the “Plant response rating, Wild oats” value (wild oat [1]; [22]) was 0. For the same compound, the “Plant response rating, Wheat (winter)” value (winter wheat [2]; Rate 125 g/ha, 0 to 100 scale, 0 is no effect, 100 is complete control) was 70, the “Plant response rating, Wheat (winter)” value (winter wheat [2]; Rate 250 g/ha, 0 to 100 scale, 0 is no effect, 100 is complete control) was 95 and the “Plant response rating, Wheat (winter)” value (winter wheat [2]; [17]) was 95. The “Plant response rating, I. Ryegrass” value (Italian ryegrass; [18]) was 60, the “Plant response rating, I. Ryegrass” value (Italian ryegrass; Rate 250 g/ha, 0 to 100 scale) was 85 and the “Plant response rating, I. Ryegrass” value (Italian ryegrass; [19]) was 95. The “Plant response rating, Barley (winter)” value (winter barley; [18]) was 40, the “Plant response rating, Barley (winter)” value (winter barley; Rate 250 g/ha, 0 to 100 scale, 0 no effect, 100 complete control) was 50 and the “Plant response rating, Barley (winter)” value (winter barley; [19]) was 70. For the same compound, the “Plant response rating, Blackgrass” value (blackgrass; [18]) was 50, the “Plant response rating, Blackgrass” value (blackgrass; Rate 250 g/ha, 0 to 100 scale) was 100 and the “Plant response rating, Blackgrass” value (blackgrass; [19]) was 60. For the same compound, the “Plant response rating, Wheat (winter)” value (winter wheat [3]; [18]) was 50, the “Plant response rating, Wheat (winter)” value (winter wheat [3]; Rate 250 g/ha, 0 to 100 scale) was 50 and the “Plant response rating, Wheat (winter)” value (winter wheat [3]; [19]) was 60. For the same compound, the “Plant response rating, Wild oat” value (wild oat [4]; [18]) was 60, the “Plant response rating, Wild oat” value (wild oat [4]; Rate 250 g/ha, 0 to 100 scale) was 60 and the “Plant response rating, Wild oat” value (wild oat [4]; [19]) was 70. For the same compound, the “Wheat plant response rating” value (wheat; [10]) was 1, the “Wheat plant response rating (0 to 10 scale)” value (wheat; Preemergence, Rate 125 g/ha) was 2 and the “Wheat plant response rating” value (wheat; [11]) was 7. The “Wheat plant response rating” value (wheat; [12]) was 8, the “Wheat plant response rating” value (wheat; [20]) was 0 and the “Wheat plant response rating” value (wheat; [21]) was 1. For the same compound, the “Plant response rating, Wheat” value (wheat; [22]) was 5.
